Counter-ions that a name gives are not always drawn.
Tests used:
Nitric oxide synthase = biological target: T1, Nitric oxide synthase (Mus musculus, UniProt P29477); assay: Screen 1: nitric oxide synthase inhibition, 3H-L-arginine to 3H-L-citrulline conversion, lysate of induced J774A-1 cells; format: biochemical; conditions: enzyme from LPS/IFNg-induced murine macrophage cell line J774A-1; 1 hour at room temperature
T1 construct: endogenous in cells; host or cells: J774A-1 murine macrophage cell line, induced with LPS and IFN-gamma; crude lysate
Method: The activity of compounds of formula (I), or a pharmaceutically acceptable salt, enantiomer or racemate thereof, may be screened for nitric oxide synthase inhibiting activity by a procedure based on that of Förstermann et al., Eur. J. Pharm., 1992, 225, 161-165. Nitric oxide synthase converts ^3H-L-arginine into ^3H-L-citrulline which can be separated by cation exchange chromatography and quantified by liquid scintillation counting.
Enzyme is prepared, after induction, from the cultured murine macrophage cell line J774A-1 (obtained from the laboratories of the Imperial Cancer Research Fund). J774A-1 cells are cultured in Dulbeccos Modified Eagles Medium (DMEM) supplemented with 10% foetal bovine serum, 4 mM L-glutamine and antibiotics (100 units/ml penicillin G, […] streptomycin & […] amphotericin B). Cells are routinely grown in […] flasks containing 35 ml medium kept at 37° C. and in a humidified atmosphere containing 5% CO2. […]
Labelled L-citrulline is separated from labelled L-arginine using Dowex AG-50W. […] After allowing the samples to dry the L-citrulline is quantified by scintillation counting.
In a typical experiment basal activity is 300 dpm per 75 μl sample which is increased to 1900 dpm in the reagent controls. […] Compounds are tested at a range of concentrations and from the inhibitions obtained IC50 values are calculated. […]

Recombinant human iNOS = biological target: T2, Recombinant human iNOS (Homo sapiens, UniProt P35228); assay: Screen 2: recombinant human NO synthase inhibition, L-[3H]citrulline formation; format: biochemical; conditions: recombinant human iNOS expressed in E. coli; 60 min pre-incubation with NADPH
T2 construct: made in house; host or cells: E. coli (lysate)
Method: Recombinant human NO synthases (iNOS, eNOS & nNOS) were expressed in E. coli and lysates were prepared in Herpes buffer (pH 7.4) containing co-factors (FAD, FMN, H4B), protease inhibitors, lysozyme and the detergent, CHAPS. These preparations were used, at suitable dilution, to assess inhibition of the various isoforms. Inhibition of NOS was determined by measuring the formation of L-[^3H]citrulline from L-[^3H]arginine using an adaptation of the method of Förstermann et al.^9 Enzyme assays were performed in the presence of 3 μM [^3H]arginine, 1 mM NADPH and other co-factors required to support NOS activity (FAD, FMN, H4B, calmodulin, Ca^2+). […] Incubations continued for a further 60 min before the assays were quenched and [^3H]citrulline separated from unreacted substrate by chromatography on Dowex-50W resin in a 96-well format.

[1] = biological target: T3, human form of induced nitric oxide synthase (Homo sapiens, UniProt P35228); assay: Screen 3: nitrite accumulation in cytokine-induced DLD-1 cells (Griess reagent); format: cell-based; conditions: DLD-1 human colorectal carcinoma cells, nitrite accumulation over 5 hours
T3 construct: Nitric oxide synthase was induced in cells by addition of medium containing human recombinant gamma-IFN; endogenous in cells; host or cells: DLD-1 human colorectal carcinoma cells (ECACC 90102540), induced with IFN-gamma, TNF-alpha, IL-6 and IL-1-beta
Method: The human colorectal carcinoma cell line, DLD-1 (obtained from the European Collection of Animal Cell Culture—cell line number 90102540) was routinely grown in RPMI 1640 supplemented with 10% (v/v) foetal bovine serum, and 2 mM L-glutamine, at 37° C. in 5% CO2. Nitric oxide synthase was induced in cells by addition of medium containing human recombinant gamma-IFN (1000 units/ml), TNF-alpha (200 U/ml), IL-6 (200 U/ml) and IL-1-beta (250 U/ml). After incubation for 18 hours at 37° C., the medium was removed and the cells washed with warm phosphate buffered saline. Cells were incubated for a further 5 hours at 37° C./5% CO2 in RPMI 1640 containing 100 μM L-arginine and 100 μM verapamil-HCl in the presence and absence of test compounds. Nitrite accumulation was determined by mixing an equal volume of culture media with Griess reagent (10 mg/ml sulphanilamide, 1 mg N-(1-naphthyl)ethylenediamine in 1 ml 2.5% (v/v) phosphoric acid). Inhibition in the presence of compounds was calculated relative to the nitrite levels produced by untreated cells. IC50 values were estimated from a semi-log plot of % inhibition versus concentration of compound.

IC50 (Nitric oxide synthase): < 10 µM
IC50 (Recombinant human iNOS): < 10 µM
IC50 [1]: < 100 µM
SMILES: Cc1cc(S[C@H](CN)c2ccccc2)c(C#N)s1 [Example 1, 3-[[(1S)-2-Amino 1-phenylethyl]thio]-5-methyl-2-thiophenecarbonitrile oxalate]

— US7329686B2, “Substituted thiophene compounds” (AstraZeneca AB, priority 2002, dated 2008)
